Measured values from the supplement of paper PMC4862054.

Key:
Settings in all cases: incubation time: 72 h
CAL-148 [1] = assay: normalised viability (% of control), CellTiter-Blue; higher = more viable cells (about 100 = DMSO control)
Summary of the method: (§1)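 Seeded at 20 µl suspension per well onto compound-loaded 384-well plates, breast cancer cell lines were incubated 72 h. CellTiter-Blue fluorescence at 560/590 nm was then read, with each plate normalised to vehicle (100) and a positive kill control (0). Normalised viability is reported at a single listed concentration of the series.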

CAL-51 [2] = assay: as above
Summary of the method: as §1

CAL-85-1 [3] = assay: as above
Summary of the method: as §1

HDQ-P1 [4] = assay: as above
Summary of the method: as §1

MDA-MB-453 [5] = assay: as above
Summary of the method: as §1

CAL-148 [6] = assay: as above; remark: listed apart in the source
Summary of the method: as §1

CAL-51 [7] = assay: as above; remark: listed apart in the source
Summary of the method: as §1

CAL-85-1 [8] = assay: as above; remark: listed apart in the source
Summary of the method: as §1

DU-4475 [9] = assay: as above
Summary of the method: as §1

HDQ-P1 [10] = assay: as above; remark: listed apart in the source
Summary of the method: as §1

MDA-MB-453 [11] = assay: as above; remark: listed apart in the source
Summary of the method: as §1

BT-474 = assay: normalised response (% of control), CellTiter-Glo; higher = more viable cells (100 = DMSO, 0 = benzethonium chloride kill control)
Description: (§2)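 DSRT, 72 h incubation, CellTox Green / CellTiter-Glo readout. Signal is normalised to DMSO and benzethonium chloride controls. Value is the normalised response at the highest dose.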

CAL-85-1 [12] = assay: as above
Description: as §2

DU-4475 [13] = assay: as above
Description: as §2

HDQ-P1 [14] = assay: as above
Description: as §2

Hs578T = assay: as above
Description: as §2

MDA-MB-231 = assay: as above
Description: as §2

MDA-MB-436 = assay: as above
Description: as §2

MDA-MB-453 [15] = assay: as above
Description: as §2

SMILES | normalised viability (CAL-148 [1]) [%] | normalised viability (CAL-51 [2]) [%] | normalised viability (CAL-85-1 [3]) [%] | normalised viability (HDQ-P1 [4]) [%] | normalised viability (MDA-MB-453 [5]) [%] | normalised viability (CAL-148 [6]) [%] | normalised viability (CAL-51 [7]) [%] | normalised viability (CAL-85-1 [8]) [%] | normalised viability (DU-4475 [9]) [%] | normalised viability (HDQ-P1 [10]) [%] | normalised viability (MDA-MB-453 [11]) [%] | normalised response (BT-474) [%] | normalised response (CAL-85-1 [12]) [%] | normalised response (DU-4475 [13]) [%] | normalised response (HDQ-P1 [14]) [%] | normalised response (Hs578T) [%] | normalised response (MDA-MB-231) [%] | normalised response (MDA-MB-436) [%] | normalised response (MDA-MB-453 [15]) [%]
CCOc1cc2ncc(C#N)c(Nc3ccc(OCc4ccccn4)c(Cl)c3)c2cc1NC(=O)/C=C/CN(C)C [Neratinib] (100 nM) | 101 | 92.6 | 94.9 | 120 | 76 |  |  |  |  |  |  |  |  |  |  |  |  |  | 
CS(=O)(=O)OCCCCOS(C)(=O)=O [Busulfan] (10000 nM) | 120 | 85.6 | 108 | 88.2 | 104 |  |  |  |  |  |  |  |  |  |  |  |  |  | 
COc1c(C)cnc(Cn2cnc3c(Cl)nc(N)nc32)c1C [BIIB021] (10000 nM) |  |  |  |  |  | 15.7 | 9.69 | 21.7 | -0.63 | 30.4 | 4.83 | 27.5 | 18.6 | 0.28 | 20.3 | 33.7 | 16.7 | 41.7 | 27.5
C[C@@]1(C(=O)Nc2ccc(F)nc2)CCCN1c1nc(Nc2cc(C3CC3)n[nH]2)c2cccn2n1 (10000 nM) |  |  |  |  |  | 49.1 | 6.06 | 30.6 | 3.48 | 7.47 | 75.3 | 29.8 | 38.9 | 31.4 | 8.28 | 44.7 | 26.1 | 40.6 | 127
COC1=CC(c2cc3ccccc3[nH]2)=N/C1=C\c1[nH]c(C)cc1C [Obatoclax] (10000 nM) |  |  |  |  |  | 10.8 | 6.23 | 22.1 | 30 | 35.5 | 18.6 | 70.5 | 76.3 | 84 | 91.1 | 74.7 | 66.9 | 81.6 | 57.5
COC1=CC(c2cc3ccccc3[nH]2)=N/C1=C\c1[nH]c(C)cc1C [Obatoclax] (1000 nM) | 78.3 | 72.3 | 57.5 | 41.6 | 34 |  |  |  |  |  |  |  |  |  |  |  |  |  | 
COc1ccc(C2=N[C@@H](c3ccc(Cl)cc3)[C@@H](c3ccc(Cl)cc3)N2C(=O)N2CCNC(=O)C2)c(OC(C)C)c1 [Nutlin-3] (10000 nM) |  |  |  |  |  | 57.3 | 53.3 | 86.6 | 36.1 | 111 | 90 | 93.3 | 97.3 | 72.7 | 97.1 | 102 | 91.9 | 102 | 68.7
CCCC(CCC)C(=O)O [Valproic acid] (10000 nM) |  |  |  |  |  | 91.5 | 91.4 | 86.8 | 82.9 | 125 | 106 |  |  |  |  |  |  |  | 
O=c1[nH]cc(F)c(=O)[nH]1 [Fluorouracil] (1000 nM) | 75.5 | 102 | 74.2 | 96.1 | 91.7 |  |  |  |  |  |  |  |  |  |  |  |  |  | 
C[C@@H]1C=C2C(=O)O[C@@H]3CC[C@H](C1)[C@]23O [Galiellalactone] (5000 nM) | 147 | 105 | 72.6 | 98 | 73.7 |  |  |  |  |  |  |  |  |  |  |  |  |  | 
Cn1cnc2c(F)c(Nc3ccc(Br)cc3F)c(C(=O)NOCCO)cc21 [MEK-162] (100 nM) | 98.8 | 101 | 82.1 | 107 | 112 |  |  |  |  |  |  |  |  |  |  |  |  |  | 
O=C(c1ccc(OCCN2CCCCC2)cc1)c1c(-c2ccc(O)cc2)sc2cc(O)ccc12 [Raloxifene] (1000 nM) | 112 | 91.5 | 101 | 81.3 | 97.1 |  |  |  |  |  |  |  |  |  |  |  |  |  | 
COc1ccc(C2=N[C@@H](c3ccc(Cl)cc3)[C@@H](c3ccc(Cl)cc3)N2C(=O)N2CCNC(=O)C2)c(OC(C)C)c1 [Nutlin-3] (1000 nM) | 91.6 | 95.8 | 88.9 | 119 | 97.2 |  |  |  |  |  |  |  |  |  |  |  |  |  | 
CCS(=O)(=O)c1cccc(-c2cc(C(=O)NC3CCN(C)CC3)c(C)c3[nH]c4ncc(C)cc4c23)c1 [TAK-901] (100 nM) | 40.3 | 56.5 | 70.4 | 87.2 | 65 |  |  |  |  |  |  |  |  |  |  |  |  |  | 
COc1cccc2c1C(=O)c1c(O)c3c(c(O)c1C2=O)C[C@@](O)(C(C)=O)C[C@@H]3O[C@H]1C[C@H](N)[C@H](O)[C@H](C)O1 [Daunorubicin] (1000 nM) |  |  |  |  |  | -0.25 | 1.88 | 12.2 | -1.24 | 16 | 11.6 | 19 | 7.68 | 0.14 | 27.9 | 35.1 | 8.81 | 22.8 | 4.31
CC(=O)O[C@H]1C(=O)[C@@]2(C)[C@H]([C@H](OC(=O)c3ccccc3)[C@]3(O)C[C@H](OC(=O)[C@H](O)[C@@H](NC(=O)c4ccccc4)c4ccccc4)C(C)=C1C3(C)C)[C@]1(OC(C)=O)CO[C@@H]1C[C@@H]2O [Paclitaxel] (100 nM) | 20.8 | 23.4 | 31.8 | 33 | 24.8 |  |  |  |  |  |  |  |  |  |  |  |  |  | 
